{"source": "patent EP0791056B1", "about": "“LIPID-CLEAVAGE ENZYME COMPLEX” (priority 1994, dated 1996)", "key": {"LCE": {"system": "LCE", "test": "Substrate cleavage by LCE", "format": "biochemical", "settings": "cleavage to drug monophosphate and DMDOP", "excerpt": "Das Enzym wird vorzugsweise aus humanen peripheren Blutleukozyten, die zuvor durch PHA oder andere Stimulantien (z.B. Cytokine, etc.) aktiviert wurden, oder aus murinen Nierenzellen isoliert. Aus vorläufigen Untersuchungen ergibt sich ein Molekulargewicht von etwa 120.000 - 160.000, bestimmt nach der SDS-PAGE-Methode. Zellen, die dieses Enzym enthalten, können auf einfache Weise dadurch identifiziert werden, indem sie unter geeigneten Testbedingungen mit einer Lösung von AZT-DMDOPE oder FLT-DMDOPE versetzt werden und die Spaltprodukte AZT-monophosphat bzw. FLT-monophosphat oder DMDOP nachgewiesen werden, beispielsweise durch dünnschichtchromatographische Methoden oder im Fall von radioaktiv markierten Proben durch szintillatographische Verfahren (siehe Beispiele 4 - 7). Im Gegensatz zu den biochemisch verwandten Phospholipasen C oder -D wird das LCE nicht durch bekannte Inhibitoren von Phospholipase C oder -D gehemmt oder durch Aktivatoren von Phospholipase C oder -D aktiviert. Im Gegensatz zu Phospholipase C wird das Enzym durch die Substanz D 609 (Tricyclodecan-9-yl-xanthogenat; C11H15OS2 K) aktiviert, während D 609 Phospholipase C inhibiert."}, "CEM-SS-Zellen": {"system": "CEM-SS-Zellen", "test": "Enzymatic cleavage of [14C]-AZT-DMDOPE by cell homogenates, TLC of metabolites", "format": "in vitro ADME", "settings": "Zellhomogenate von CEM-SS-Zellen", "protocol": "(§1) Die Spaltung von AZT-DMDOPE wurde mit Hilfe eines Enzym-Assays mit [^14C]-AZT-DMDOPE und AZT-DMDOPE als Substrat untersucht. Als Enzymquelle wurden zunächst Zellhomogenate von CEM-SS-Zellen und humanen PBL verwendet. Tab.\n(§2) Zur Herstellung der Zellhomogenate wurden Zellsuspensionen mit einer Dichte von 5 x10^7 Zellen/ml 50 mM Tris (pH 7.4) im Glashomogenisator mechanisch aufgeschlossen. Der Zellaufschluß wurde hierbei im Umkehr-Phasenkontrast-Mikroskop optisch kontrolliert. Tab.\n(§3) Zunächst wurde 1 ml dieses Zellhomogenales in dem Enzym-Assay ohne vorherige Bestimmung der Proteinkonzentration eingesetzt.\n(§4) Zur Gewährleistung einer Substratsättigung wurden weitere 50 nmol der nichtradioaktiv markierten Verbindung hinzugefügt. [^14C]-AZT-DMDOPE trägt die radioaktive Markierung im Thioetherlipidteil und erlaubt somit eine eindeutige Identifikation der potentiellen Metabolits [^14-C]DMDOP.\n(§5) Die Ansätze wurden für 1, 3, 6 und 24 h im Wasserbad bei 37 °C inkubiert. Als Vergleich wurde ein Ansatz ohne Zugabe von Zellhomogenat mitgeführt. Anschließend wurden die Spaltprodukte mit Diethylether:2-Propanol (9:1, v/v) extrahiert und dünnschichtchromatographisch im IBA- und IBAE-System analysiert (Abb. 18). Nach Trennung der Substanzen wurde zur Detektion der radioaktiv markierten Substanzen die DC-Platte 15 min im Radio-DC-Analysator gemessen. […]"}, "[1]": {"system": "nichtstimulierten humanen PBL", "test": "Intracellular concentrations of AZT and AZT nucleotides (radioimmunoassay) in non-stimulated human PBL", "format": "in vitro ADME", "excerpt": "AZT wurden humane PBL aus \"Buffy coat\" isoliert."}, "stimulierten humanen PBL": {"system": "stimulierten humanen PBL", "test": "Intracellular decay kinetics of AZT and AZT nucleotides after removal of the incubation solution", "format": "in vitro ADME, human", "protocol": "Stimulierte humane PBL wurden für 24 h mit 0.3 µg AZT/ml bzw. 10 µg AZT-DMDOPE/ml inkubiert. Anschließend wurden 1 x 10^7 Zellen in Gewebekulturflaschen (50 ml/25 cm^2) mit RPMI 1640 Komplettmedium I überführt. Nach 1, 3, 6, 24 und 48 h wurde AZT und die AZT-Nukleotide aus der zellulären Matrix extrahiert. Nach einer Behandlung mit alkalischer Phosphatase wurde mit Hilfe des Radioimmuno-Assays die Konzentration an AZT bestimmt."}, "[2]": {"system": "Zellhomogenate humaner PBL", "test": "Enzymatic cleavage of [14C]-AZT-DMDOPE by cell homogenates, TLC of metabolites", "format": "in vitro ADME, human", "protocol": "as §1\nLetztere wurden sowohl nach Stimulation mit PHA-M als auch in nichtstimuliertem Zustand direkt nach ihrer Isolierung homogenisiert und im Enzym-Assay eingesetzt.\nas §2, §3, §4\nas §5, with “18).” for “18). Nach Trennung der Substanzen wurde zur Detektion der radioaktiv markierten Substanzen die DC-Platte 15 min im Radio-DC-Analysator gemessen.”"}}}
{"molecule": "CCCCCCCCCCCCSCC(COP(=O)(O)OC[C@H]1O[C@@H](n2cc(C)c(=O)[nH]c2=O)C[C@@H]1N=[N+]=[N-])OCCCCCCCCCC", "note": "(some centres unmarked) [AZT-DMDOPE, (3'-Desoxy-3'-azidothymidin)-5'-phosphorsäure-(3-dodecyl-mercapto-2-decyloxy)-propylester]", "values": [{"measurement": "Spaltung durch LCE", "setting": "LCE", "value": "spaltet"}, {"measurement": "Metabolisierung von AZT-DMDOPE", "setting": "CEM-SS-Zellen", "value": "zu DMDOP und AZT-MP metabolisiert"}, {"measurement": "maximale intrazelluläre Konzentrationen an AZT und AZT-Nukleotiden", "setting": "[1]; 1 µg AZT-DMDOPE/ml", "value": 0.62, "unit": "ng/10^6 Zellen"}, {"measurement": "maximale intrazelluläre Konzentrationen an AZT und AZT-Nukleotiden", "setting": "[1]; 10 µg AZT-DMDOPE/ml", "value": 4.74, "unit": "ng/10^6 Zellen"}, {"measurement": "intrazelluläre Konzentrationen an AZT und AZT-Nukleotiden im Vergleich zur äquipotenten Konzentration an AZT", "setting": "[1]; whole incubation time", "value": "größer"}, {"measurement": "um Faktor höhere Konzentration an phosphoryliertem AZT im Vergleich zu äquipotenter Konzentration an AZT", "setting": "stimulierten humanen PBL; 10 µg AZT-DMDOPE/ml vs. 0.3 µg AZT/ml", "value": 4.5}, {"measurement": "konstanter Wert der intrazellulären Konzentrationen an AZT und AZT-Nukleotiden", "setting": "stimulierten humanen PBL; 24 h preincubation with 10 µg AZT-DMDOPE/ml, reached after 3 h, constant over 48 h", "value": 1.80, "unit": "ng/10^6 Zellen"}, {"measurement": "Metabolisierung von AZT-DMDOPE", "setting": "[2]", "value": "zu DMDOP und AZT-MP metabolisiert"}]}
